Measured values as given in the NIST ThermoML archive (doi:10.1016/j.jct.2016.01.019).
“And” between values parts separate entries of the source, which are not always exact repeats. Identical values can stand only once.

Assays:
[1] = refractive index (other wavelength) (dimensionless); conditions: 94.64 kPa, Liquid, Standard Abbe refractometry
[2] = refractive index (Na D-line) (dimensionless); conditions: 94.64 kPa, Liquid, Standard Abbe refractometry
[3] = Liquid; for mass density: 94.64 kPa, Vibrating tube method; for vapor or sublimation pressure: Ebulliometric method (Recirculating still)
[4] = xn = mol fraction of the nth substance listed; conditions: 94.64 kPa, Liquid, Vibrating tube method

OCCCO [propan-1,3-diol]
refractive index, [1]
Conditions | Wavelength=404.7 nm | Wavelength=435.8 nm | Wavelength=486.1 nm | Wavelength=546.1 nm | Wavelength=587.6 nm | Wavelength=632.8 nm | Wavelength=644 nm | Wavelength=706.5 nm
293.15 K | 1.45177 | 1.44842 | 1.4444 | 1.44112 | 1.43939 | 1.43781 | 1.43746 | 1.43577
298.15 K | 1.45037 | 1.447 | 1.44301 | 1.43975 | 1.43802 | 1.43645 | 1.43611 | 1.43441
303.15 K | 1.44902 | 1.44566 | 1.44168 | 1.43844 | 1.43671 | 1.43514 | 1.4348 | 1.43312
308.15 K | 1.44755 | 1.44419 | 1.44027 | 1.43699 | 1.43529 | 1.43375 | 1.4334 | 1.4317
313.15 K | 1.44615 | 1.4428 | 1.43888 | 1.43562 | 1.43392 | 1.43238 | 1.43203 | 1.43035
318.15 K | 1.44474 | 1.44141 | 1.43754 | 1.43429 | 1.43261 | 1.43109 | 1.43075 | 1.42908

Conditions | mass density [kg/m3] | refractive index | vapor or sublimation pressure
[2], 293.15 K | – | 1.43932 | –
[2], 298.15 K | – | 1.43796 | –
[2], 303.15 K | – | 1.43665 | –
[2], 308.15 K | – | 1.43523 | –
[2], 313.15 K | – | 1.43385 | –
[2], 318.15 K | – | 1.43255 | –
[3], 293.15 K | 1052.75 | – | –
[3], 298.15 K | 1049.67 | – | –
[3], 303.15 K | 1046.55 | – | –
[3], 308.15 K | 1043.45 | – | –
[3], 313.15 K | 1040.32 | – | –
[3], 318.15 K | 1037.18 | – | –
[3], 414.2 K | – | – | 6.65 kPa and 6.67 kPa
[3], 420.8 K | – | – | 9.93 kPa
[3], 427.55 K | – | – | 13.33 kPa
[3], 427.6 K | – | – | 13.47 kPa
[3], 433.9 K | – | – | 16.75 kPa
[3], 438.05 K | – | – | 19.99 kPa
[3], 441.95 K | – | – | 23.46 kPa
[3], 445.3 K | – | – | 26.66 kPa
[3], 448.65 K | – | – | 30.22 kPa
[3], 451.65 K | – | – | 33.22 kPa
[3], 453.15 K | – | – | 33.33 kPa
[3], 454.65 K | – | – | 36.69 kPa
[3], 457.45 K | – | – | 39.99 kPa
[3], 457.49 K | – | – | 40.04 kPa
[3], 459.85 K | – | – | 43.37 kPa
[3], 461.95 K | – | – | 46.67 kPa and 46.66 kPa
[3], 463.95 K | – | – | 49.97 kPa
[3], 465.45 K | – | – | 53.24 kPa

OCCCO [propan-1,3-diol] + CC(O)CO
mass density [kg/m3], [4]
Conditions | x2 = 0 | x2 = 0.0985 | x2 = 0.2023 | x2 = 0.3015 | x2 = 0.3961 | x2 = 0.5009 | x2 = 0.5961 | x2 = 0.6965 | x2 = 0.7974 | x2 = 0.8985
293.15 K | 1052.75 | 1051.85 | 1050.9 | 1049.75 | 1048.38 | 1046.9 | 1045.18 | 1043.35 | 1041.33 | 1038.71
298.15 K | 1049.67 | 1048.71 | 1047.71 | 1046.51 | 1045.09 | 1043.57 | 1041.79 | 1039.9 | 1037.77 | 1035.15
303.15 K | 1046.55 | 1045.54 | 1044.49 | 1043.23 | 1041.76 | 1040.18 | 1038.34 | 1036.39 | 1034.25 | 1031.52
308.15 K | 1043.45 | 1042.36 | 1041.24 | 1039.93 | 1038.41 | 1036.78 | 1034.87 | 1032.85 | 1030.65 | 1027.85
313.15 K | 1040.32 | 1039.16 | 1037.97 | 1036.61 | 1035.02 | 1033.34 | 1031.36 | 1029.27 | 1027.04 | 1024.18
318.15 K | 1037.18 | 1035.96 | 1034.7 | 1033.26 | 1031.62 | 1029.89 | 1027.83 | 1025.68 | 1023.38 | 1020.43
